According to patent US20120316144A1, “ANTIFUNGAL AGENT” (priority 2010, published 2012):

How the values were obtained:
[1] = test system: Malassezia; assay: Antifungal (Malassezia) paper disk test of fractionated ingredients of mastic normal-hexane extract with squalene; assay type: cell-based; details: for diameter of antiproliferative circle, First time / diameter of antiproliferative circle, Second time / diameter of antiproliferative circle, Average: Malassezia, Mueller-Hinton media, fraction 5 mg/disk + squalene 25 mg/disk; for diameter of antiproliferative circle, Average: average of two runs; for anti-Malassezia activity (in words): combination with squalene, summary of Table 4
Experimental: The fractions fractionated in the first example were respectively dissolved in acetone. Paper disks for antibiotic assay which are the same as the paper disks for antibiotic assay used in the third example were impregnated with the obtained respective fraction solutions of 5 mg/disk. Moreover, squalene was added to each of the paper disks for antibiotic assay by 25 mg/disk, to prepare disks to be tested. Then, the respective disks to be tested were vacuum-dried to eliminate the acetone. Further, the Malassezia prepared to be approximately 10^6 CFU/ml was applied to the Mueller-Hinton media. Next, the respective disks to be tested were placed on the Mueller-Hinton media, and cultured for two days under an aerobic condition at 37° C. Then, the diameters (mm) of antiproliferative circles formed around the respective disks to be tested were measured.

[2] = test system: Malassezia; assay: Antifungal (Malassezia) paper disk test of mastic normal-hexane extract and squalene; assay type: cell-based; details: Mueller-Hinton media, squalene 25 mg/disk alone
Experimental: Mastic normal-hexane extract (MH) was dissolved in acetone. Then, paper disks for antibiotic assay which are the same as the paper disks for antibiotic assay used in the third example were impregnated with the obtained MH solution, to prepare a disk to be tested impregnated with the MH solution of 5 mg/disk, a disk to be tested impregnated with the MH solution of 10 mg/disk, and a disk to be tested impregnated with the MH solution of 20 mg/disk. These disks to be tested were prepared two each, respectively. Further, the S solution, which was obtained by dissolving squalene (S) in acetone, was added to each of some disks to be tested prepared in this way by 25 mg/disk, to prepare disks of mixture of the mastic normal-hexane extract and squalene (MH+S) as well. Further, as standard controls, paper disks for antibiotic assay which are the same as the paper disks for antibiotic assay used in the third example were impregnated with the S solution of 25 mg/disk, to prepare a disk to be tested. Then, the respective disks to be tested were vacuum-dried to eliminate the acetone. Further, the Malassezia prepared to be approximately 10^6 CFU/ml was applied to the Mueller-Hinton media. […] Then, the diameters (mm) of antiproliferative circles formed around the respective disks to be tested were measured.

Row | Structure (SMILES) | diameter of antiproliferative circle, First time [1] | diameter of antiproliferative circle, Second time [1] | diameter of antiproliferative circle, Average [1] | anti-Malassezia activity (in words) [1] | Antiproliferative Circles (mm) [2]
1 | CC1(C)C=C2C(=CC[C@]3(C)C2CC[C@@H]2[C@@]4(C)CCC(=O)C(C)(C)[C@@H]4CC[C@]23C)CC1 (stereo partly shown) [Fr. 1, 3-oxo-28-norolean-16,18-diene] | 25 mm | 22 mm | 23.5 mm | potent anti-Malassezia activity | 
2 | CC1(C)CC[C@]2(C=O)CC[C@]3(C)C(=CC[C@@H]4[C@@]5(C)CCC(=O)C(C)(C)[C@@H]5CC[C@]43C)C2C1 (stereo partly shown) [Fr. 3, olean-12-en-3,28-dione] | 25 mm | 25 mm | 25 mm | potent anti-Malassezia activity | 
3 | CC(C)=CCC[C@H](C)[C@@H]1CC[C@]2(C)C3=C(CC[C@@]12C)[C@@]1(C)CC[C@H](O)C(C)(C)[C@@H]1CC3 [Fr. 5-1, Tirucallol] |  |  |  | potent anti-Malassezia activity | 
4 | CC1(C)CC[C@]2(C)CC[C@]3(C)C(=CC[C@@H]4[C@@]5(C)CC[C@H](O)C(C)(C)[C@@H]5CC[C@]43C)C2C1 (stereo partly drawn) [Fr. 5-2, β-amylin] |  |  |  | potent anti-Malassezia activity | 
5 | CC1(C)CCC2(O)CC[C@]3(C)C(=CC[C@@H]4[C@@]5(C)CCC(=O)C(C)(C)[C@@H]5CC[C@]43C)C2C1 (stereo partly shown) [Fr. 6, 3-oxo-17-hydroxy-norolean-12-ene] | 21 mm | 19 mm | 20 mm | potent anti-Malassezia activity | 
6 | CC(C)=CCC[C@](C)(O)[C@H]1CC[C@]2(C)C1CCC1[C@@]3(C)CCC(=O)C(C)(C)[C@@H]3CC[C@]12C (stereo partly shown) [Fr. 8, 3-oxo-20-hydroxy-dammar-24-ene] | 25 mm | 24 mm | 24.5 mm | potent anti-Malassezia activity | 
7 | CC(C)=CCC/C(C)=C/CC/C(C)=C/CC/C=C(\C)CC/C=C(\C)CCC=C(C)C [S, squalene] |  |  |  |  | 11 mm
